Literature values as cited in patent US20220016058A1, “PHARMACEUTICAL COMPOSITION CONTAINING TAMSULOSIN HYDROCHLORIDE WITH EXCELLENT ACID RESISTANCE AND PREPARATION METHOD THEREFOR” (HANMI PHARM. CO., LTD., priority 2018, published 2022).
Structures can show the parent of a compound that is named as a salt.

Solubility in water: dissolving a little in water
SMILES: CCOc1ccccc1OCCN[C@H](C)Cc1ccc(OC)c(S(N)(=O)=O)c1 [tamsulosin hydrochloride, Tamsulosin hydrochloride]
